Earlier results on one compound are cited in patent US8986736B2, “Method for delivering particulate drugs to tissues” (Baxter International Inc., priority 2003, dated 2015).

For this data set, the system named is HIV-infected macrophages.

As for `CC(C)(C)NC(=O)[C@@H]1C[C@@H]2CCCC[C@@H]2CN1C[C@@H](O)[C@H](Cc1ccccc1)NC(=O)[C@H](CC(N)=O)NC(=O)c1ccc2ccccc2n1` [saquinavir], the “activity in chronically HIV-infected macrophages” value (100 nM, in solution) is “completely inactive”. For the same compound, the antiviral activity entry (aqueous solution, HIV-infected macrophages) is “little antiviral activity”.
